Assay results: patent publication US6544166B1, “Treatment of human infertility” (priority 1999, dated 2003)
Marks after values point to notes of the source that are not given here.

Columns and labels:
[1] = tested on: cumulus enclosed human oocytes; assay: Maturation of cumulus enclosed human oocytes with FF-MAS; assay type: cell-based
Text: Although the use of FF-MAS improves the rate of fertility compared to the currently applied methods, it is still desirable to increase this rate even further.

[2] = tested on: mouse oocytes; assay: In vitro fertilization of mouse oocytes after in vitro maturation with or without Hx arrest and FF-MAS induction (Example 4); assay type: cell-based, mice (C57Bl/6J×DBA/2J F1-hybrids)
Experimental: Aim: to optimize the culture conditions for mammalian oocytes by arresting the spontaneous maturation for 4 hours before initiating oocyte maturation by the means of adding a adequate concentration of FF-MAS.
Óocytes were obtained from immature (21-24 day old) female mice (C57Bl/6J×DBA/2J F1-hybrids, M&B, Denmark) weighing 13-16 grams, which were kept under controlled lighting and temperature. […] The ovaries were dissected out and the oocytes were isolated in Hx-medium (see below) under a stereomicroscope by manual rupture of the follicles using a pair of 27 gauge needles. Spherical oocytes displaying an intact germinal vesicle (GV) were selected and placed in α-minimum essential medium (α-MEM without ribonucleosides, Gibco BRL, Cat. No. 22561) supplemented with 3 mM hypoxanthine (Sigma Cat. No. H-9377), 8 mg/ml Human Serum Albumin (HSA, State Serum Institute, Denmark), 0.23 mM pyruvate (Sigma, Cat. No. S-8636), 2 mM glutamine (Flow Cat. No. 16-801), 100 IU/ml penicillin and 100 μg/ml streptomycin (Flow, Cat. No. 16-700). This medium was designated Hx-medium. The exact same medium without Hx was designated Hx-free medium
Thus oocytes were cultured in 4-well multidishes (Nunclon, Denmark) in which each well contained 0.4 ml of Hx-medium or medium without Hx (to allow for spontaneous maturation) and 35-45 oocytes.
Different treatment groups:
1. Controls: No inhibition, No FF-MAS
2. MAS: No inhibition and 10 μM FF-MAS
3. Inhibition and then spontaneous maturation: Hx-medium for 4 hours then transfer to Hx-free medium
4. Inhibition and FF-MAS induction: Hx-medium for 4 hours and addition of FF-MAS to Hx-medium
5. Inhibition and removal of inhibition and then subsequently FF-MAS induction: Hx-medium for 4 hours, rinse, transfer to Hx-free medium and addition of FF-MAS.
In vitro fertilization following 16-20 hours maturation.
Endpoints: Fertilization rate and in vitro embryo development.

[3] = tested on: mouse oocytes; conditions: 24 hours meiotic arrest with hypoxanthine, then 16-30 hour culture in inhibitor-free medium; cited from earlier work
[4] = Treatment No 4: Hx-medium for 4 hours and addition of FF-MAS to Hx-medium
[5] = Treatment No 5: Hx-medium for 4 hours, rinse, transfer to Hx-free medium and addition of FF-MAS
[6] = Treatment No 3: Hx-medium (3 mM hypoxanthine) for 4 hours then transfer to Hx-free medium, no FF-MAS

| SMILES | Effect on nuclear and cytoplasmic maturation [1] | Oocyte quality evaluated as fertilization rate and embryonic developmental capacity, compared with the other treatments ([2]; 4th treatment modality: inhibition (Hx-medium) and FF-MAS induction) | Embryo development Rate (8-cell rate at 72 hours) ([2]; Treatment No 2: no inhibition and 10 μM FF-MAS) | Fertilization Rate ([2]; Treatment No 2: no inhibition and 10 μM FF-MAS, IVF following 16-20 hours maturation) | Embryo development Rate (8-cell rate at 72 hours) [2, 4] | Fertilization Rate [2, 4] | Embryo development Rate (8-cell rate at 72 hours) [2, 5] | Fertilization Rate [2, 5] | Embryo development Rate (8-cell rate at 72 hours) [2, 6] | Fertilization Rate [2, 6] | Arrested oocytes that resumed maturation [3] |
| --- | --- | --- | --- | --- | --- | --- | --- | --- | --- | --- | --- |
| CC(C)=CCC[C@@H](C)[C@H]1CC=C2C3=C(CC[C@@]21C)[C@@]1(C)CC[C@H](O)C(C)(C)[C@@H]1CC3 [FF-MAS, 4,4-dimethyl-5α-cholesta-8,14,24-triene-3β-ol] | improves not only nuclear but cytoplasmic maturation | significantly superior to the other treatment alternatives | <10% | <50% | 30%* | 75%* | <10% | <50% |  |  |  |
| O=c1[nH]cnc2nc[nH]c12 [hypoxanthine, Hypoxanthine] |  |  |  |  |  |  |  |  | <10% | <50% | ~100% |
